From PMC10987480, “Biological and mutational analyses of CXCR4–antagonist interactions and design of new antagonistic analogs” (Bioscience Reports, 2023)
Positions of bridges follow the written chain, without caps; N, C: chain ends. Non-standard residues stand in square brackets, D forms with d. Chains are numbered I, II in the order given. No end group written: not given here.

How the values were obtained:
CXCR4 D97A = biological target: T1, CXCR4 D97A (Homo sapiens, UniProt P61073, D97A); experiment: Competitive binding to CXCR4 mutant D97A (12G5, CHO cells); settings: TM2, class of reduction vs wild-type CXCR4, 12G5 competition, averages of at least three independent experiments
T1 construct: expressed in transfected cells
Description: (§1) Plasmid pcDNA3-CXCR4 and mutated pcDNA3-CXCR4 were extracted and transfected into CHO cells using Lipofectamine 2000 according to the manufacturer’s guidelines. The selective medium containing G418 at a concentration of 1.2 mg/ml was applied to isolate stably transfected cells. CHO cells expressing wild-type CXCR4 and mutant CXCR4 were obtained using fluorescence-activated cell sorting (FACS).
(§2) All of the CXCR4 mutants were prepared using PCR technology. Briefly, pairs of asymmetrical primers containing the desired amino acid mutations (Supplementary Tables S1 and S2), each complementary to opposite strands of the pcDNA3–CXCR4, were designed for amplification by Q5® High-Fidelity DNA polymerase and the generation of mutated constructs. The methylated pcDNA3–CXCR4 templates were digested by DpnI. The mutated pcDNA3–CXCR4 was transformed into competent E. coli TOP10 for long-term storage and amplification.
(§3) The procedure for the CXCR4 competitive binding experiments was published previously. Briefly, CXCR4 antibody 12G5 (250 ng/ml) was incubated with 5 × 10^5 cells and varying concentrations of unlabeled compounds in a final volume of 100 μl of assay buffer (PBS with 0.5% BSA and 0.05% NaN3) in 96-well plates for 40 min on ice, after being washed with assay buffer once. The cells were incubated with FITC-conjugated second antibody IgG for 30 min on ice, then washed with assay buffer three times. The fluorescence intensity was measured for excitation at 485 nm and emission at 535 nm using multimode plate reader (PerkinElmer). The IC50 values were calculated using graphpad Prism 7. Experiments were performed at least three times.

CXCR4 Y116A = biological target: T2, CXCR4 Y116A (Homo sapiens, UniProt P61073, Y116A); experiment: Competitive binding to CXCR4 mutant Y116A (12G5, CHO cells); settings: TM3, class of reduction vs wild-type CXCR4, 12G5 competition, averages of at least three independent experiments
T2 construct: expressed in transfected cells
Description: as §1, §2, §3

CXCR4 T117A = biological target: T3, CXCR4 T117A (Homo sapiens, UniProt P61073, T117A); experiment: Competitive binding to CXCR4 mutant T117A (12G5, CHO cells); settings: TM3, class of reduction vs wild-type CXCR4, 12G5 competition, averages of at least three independent experiments
T3 construct: expressed in transfected cells
Description: as §1, §2, §3

CXCR4 D171A = biological target: T4, CXCR4 D171A (Homo sapiens, UniProt P61073, D171A); experiment: Competitive binding to CXCR4 mutant D171A (12G5, CHO cells); settings: TM4, class of reduction vs wild-type CXCR4, 12G5 competition, averages of at least three independent experiments
T4 construct: expressed in transfected cells
Description: as §1, §2, §3

CXCR4 Q200A = biological target: T5, CXCR4 Q200A (Homo sapiens, UniProt P61073, Q200A); experiment: Competitive binding to CXCR4 mutant Q200A (12G5, CHO cells); design: key to the marks not given beside the values; settings: TM5, class of reduction vs wild-type CXCR4, 12G5 competition, averages of at least three independent experiments
T5 construct: expressed in transfected cells
Description: as §1, §2, §3

CXCR4 W252A = biological target: T6, CXCR4 W252A (Homo sapiens, UniProt P61073, W252A); experiment: Competitive binding to CXCR4 mutant W252A (12G5, CHO cells); settings: TM6, class of reduction vs wild-type CXCR4, 12G5 competition, averages of at least three independent experiments
T6 construct: expressed in transfected cells
Description: as §1, §2, §3

CXCR4 Y255A = biological target: T7, CXCR4 Y255A (Homo sapiens, UniProt P61073, Y255A); experiment: Competitive binding to CXCR4 mutant Y255A (12G5, CHO cells); settings: TM6, class of reduction vs wild-type CXCR4, 12G5 competition, averages of at least three independent experiments
T7 construct: expressed in transfected cells
Description: as §1, §2, §3

CXCR4 Y256A = biological target: T8, CXCR4 Y256A (Homo sapiens, UniProt P61073, Y256A); experiment: Competitive binding to CXCR4 mutant Y256A (12G5, CHO cells); settings: TM6, class of reduction vs wild-type CXCR4, 12G5 competition, averages of at least three independent experiments
T8 construct: expressed in transfected cells
Description: as §1, §2, §3

CXCR4 I259A = biological target: T9, CXCR4 I259A (Homo sapiens, UniProt P61073, I259A); experiment: Competitive binding to CXCR4 mutant I259A (12G5, CHO cells); design: key to the marks not given beside the values; settings: TM6, class of reduction vs wild-type CXCR4, 12G5 competition, averages of at least three independent experiments
T9 construct: expressed in transfected cells
Description: as §1, §2, §3

CXCR4 D262N = biological target: T10, CXCR4 D262N (Homo sapiens, UniProt P61073, D262N); experiment: Competitive binding to CXCR4 mutant D262N (12G5, CHO cells); settings: TM6, class of reduction vs wild-type CXCR4, 12G5 competition, averages of at least three independent experiments
T10 construct: expressed in transfected cells
Description: as §1, §2, §3

CXCR4 D262E = biological target: T11, CXCR4 D262E (Homo sapiens, UniProt P61073, D262E); experiment: Competitive binding to CXCR4 mutant D262E (12G5, CHO cells); settings: TM6, class of reduction vs wild-type CXCR4, 12G5 competition, averages of at least three independent experiments
T11 construct: expressed in transfected cells
Description: as §1, §2, §3

CXCR4 E288Q = biological target: T12, CXCR4 E288Q (Homo sapiens, UniProt P61073, E288Q); experiment: Competitive binding to CXCR4 mutant E288Q (12G5, CHO cells); settings: TM7, class of reduction vs wild-type CXCR4, 12G5 competition, averages of at least three independent experiments
T12 construct: expressed in transfected cells
Description: as §1, §2, §3

CXCR4 E288A = biological target: T13, CXCR4 E288A (Homo sapiens, UniProt P61073, E288A); experiment: Competitive binding to CXCR4 mutant E288A (12G5, CHO cells); settings: TM7, class of reduction vs wild-type CXCR4, 12G5 competition, averages of at least three independent experiments
T13 construct: expressed in transfected cells
Description: as §1, §2, §3

CXCR4 E288D = biological target: T14, CXCR4 E288D (Homo sapiens, UniProt P61073, E288D); experiment: Competitive binding to CXCR4 mutant E288D (12G5, CHO cells); settings: TM7, class of reduction vs wild-type CXCR4, 12G5 competition, averages of at least three independent experiments
T14 construct: expressed in transfected cells
Description: as §1, §2, §3

CXCR4 [1] = biological target: CXCR4 (Homo sapiens, UniProt P61073); experiment: SDF-1α-induced calcium mobilization assay in SupT1 cells (Fluo-4); format: cell-based; design: host or cells: SupT1 cells; settings: 50 nM SDF-1α
Description: Figure 2 The inhibitory effect of the antagonists on SDF-1α-induced cell chemotaxis and calcium mobilization in SupT1 cells The antagonists and concentrations used were labeled in each lane. (A) The inhibition of cell migration by the noted antagonists. SupT1 cells pre-treated with or without CXCR4 antagonists were seeded in the upper well and cell migrated by 2 nM SDF-1α. Migrated cells without SDF-1α were used as a negative (0%) and migrated cell induced by SDF-1α as a positive control (100%). […] SupT1 cells were treated with or without CXCR4 antagonists and activated by 50 nM SDF-1α. To directly compare the inhibitory effect of the antagonists on calcium mobilization, the vehicle background and baseline were removed using GraphPad and Origin. The data were averages of at least three independent experiments.
SupT1 cells were collected and washed using HHBS buffer (Hanks’ Balanced Salt solution supplemented with 20 mM HEPES) and incubated with 1 mM probenecid (Energy Chemical, China) and 4 μM Fluo-4 (AAT bioquest, U.S.A.) for 37°C for 30 min with vortex every 5 min. After being washed with HHBS, cells were suspended in PBS at 2 × 10^6/ml and seeded 200 μl cells and various concentrations of compounds per well in 96-well plate. Following 50 nM SDF-1α was added to each well, the fluorescence intensity was measured (Ex/Em = 496/516 nm) using EnSpire® multimode plate reader (PerkinElmer, U.S.A.).

CXCR4 [2] = settings: read-out: IC50; cited from earlier work
Description: To understand the receptor–ligand recognition mechanism involving CXCR4 and its antagonists, here in this study we conducted a series of comparative analyses of the biological activities and CXCR4 binding sites of eleven known CXCR4 antagonists, including the three mentioned above, using cell-based bioassays, CXCR4 site-directed mutagenesis and computer-aided molecular modeling. These antagonists studied here were chosen from different representative structural types including both D-peptides (i.e., HC4319, DV1, DV1 dimer, and DV3) and a representative counterpart L-peptide (i.e., V1) derived ...

T3 sequence (P61073 whole entry T117A): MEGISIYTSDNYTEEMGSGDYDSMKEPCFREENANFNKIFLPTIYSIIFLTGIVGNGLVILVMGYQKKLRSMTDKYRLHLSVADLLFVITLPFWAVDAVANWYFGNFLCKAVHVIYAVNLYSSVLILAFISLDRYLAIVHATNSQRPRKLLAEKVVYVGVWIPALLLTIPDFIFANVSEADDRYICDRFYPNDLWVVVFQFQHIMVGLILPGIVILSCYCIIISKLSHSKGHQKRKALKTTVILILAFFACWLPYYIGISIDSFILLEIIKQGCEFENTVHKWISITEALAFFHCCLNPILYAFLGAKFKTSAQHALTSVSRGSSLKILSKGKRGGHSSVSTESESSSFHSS
T8 sequence (P61073 whole entry Y256A): as the sequence (P61073 whole entry T117A) above, with A117T, Y256A counted along it
T11 sequence (P61073 whole entry D262E): as the sequence (P61073 whole entry T117A) above, with A117T, D262E counted along it
T10 sequence (P61073 whole entry D262N): as the sequence (P61073 whole entry T117A) above, with A117T, D262N counted along it
T5 sequence (P61073 whole entry Q200A): as the sequence (P61073 whole entry T117A) above, with A117T, Q200A counted along it
T1 sequence (P61073 whole entry D97A): as the sequence (P61073 whole entry T117A) above, with D97A, A117T counted along it
CXCR4 (Homo sapiens, UniProt P61073), sequence (P61073 whole entry): as the sequence (P61073 whole entry T117A) above, with A117T counted along it
T6 sequence (P61073 whole entry W252A): as the sequence (P61073 whole entry T117A) above, with A117T, W252A counted along it
T12 sequence (P61073 whole entry E288Q): as the sequence (P61073 whole entry T117A) above, with A117T, E288Q counted along it
T7 sequence (P61073 whole entry Y255A): as the sequence (P61073 whole entry T117A) above, with A117T, Y255A counted along it
T9 sequence (P61073 whole entry I259A): as the sequence (P61073 whole entry T117A) above, with A117T, I259A counted along it
T2 sequence (P61073 whole entry Y116A): as the sequence (P61073 whole entry T117A) above, with Y116A, A117T counted along it
T13 sequence (P61073 whole entry E288A): as the sequence (P61073 whole entry T117A) above, with A117T, E288A counted along it
T14 sequence (P61073 whole entry E288D): as the sequence (P61073 whole entry T117A) above, with A117T, E288D counted along it
T4 sequence (P61073 whole entry D171A): as the sequence (P61073 whole entry T117A) above, with A117T, D171A counted along it

Row | Substance | Competitive receptor binding activity, CXCR4 D97A (CXCR4 D97A) | Competitive receptor binding activity, CXCR4 Y116A (CXCR4 Y116A) | Competitive receptor binding activity, CXCR4 T117A (CXCR4 T117A) | Competitive receptor binding activity, CXCR4 D171A (CXCR4 D171A) | Competitive receptor binding activity, CXCR4 Q200A (CXCR4 Q200A) | Competitive receptor binding activity, CXCR4 W252A (CXCR4 W252A) | Competitive receptor binding activity, CXCR4 Y255A (CXCR4 Y255A) | Competitive receptor binding activity, CXCR4 Y256A (CXCR4 Y256A) | Competitive receptor binding activity, CXCR4 I259A (CXCR4 I259A) | Competitive receptor binding activity, CXCR4 D262N (CXCR4 D262N) | Competitive receptor binding activity, CXCR4 D262E (CXCR4 D262E) | Competitive receptor binding activity, CXCR4 E288Q (CXCR4 E288Q) | Competitive receptor binding activity, CXCR4 E288A (CXCR4 E288A) | Competitive receptor binding activity, CXCR4 E288D (CXCR4 E288D) | inhibition at 1 µM (CXCR4 [1]; SUP-T1, at 1 μM) [%] | IC50 (CXCR4 [2]) [nM] | Inhibition of the calcium signal (CXCR4 [1]; at 50 nM) [%]
1 | I: [dL]G[dA][dS][dW][dH][dR][dP][dD][dK][dC][dC][dL]G[dY][dQ][dK][dR][dP][dL][dP] / II: [dL]G[dA][dS][dW][dH][dR][dP][dD][dK][dC][dC][dL]G[dY][dQ][dK][dR][dP][dL][dP] (disulfide I:11-II:11, I:12-II:12) [DV1 dimer] | ++ (10–29% reduction compared with wild-type CXCR4) | + (30–60% reduction compared with wild-type CXCR4) | ++ (10–29% reduction compared with wild-type CXCR4) | ++ (10–29% reduction compared with wild-type CXCR4) | +++ | +++ | +++ | +++ | +++ | + (30–60% reduction compared with wild-type CXCR4) | ++ (10–29% reduction compared with wild-type CXCR4) | + (30–60% reduction compared with wild-type CXCR4) | + (30–60% reduction compared with wild-type CXCR4) | ++ (10–29% reduction compared with wild-type CXCR4) | 75 |  | 
2 | LGASWHRPDKCCLGYQKRPLPQVLLSSWYPTSQLCSKPGVIFLTKRGRQVCADKSKDWVKKLMQQLPVTAR [vMIP-II, viral macrophage-inflammatory protein-II, full-length natural chemokine antagonist produced by human herpesvirus-8; recombinant from Peprotech] | ++ (10–29% reduction compared with wild-type CXCR4) | ++ (10–29% reduction compared with wild-type CXCR4) | +++ | +++ | +++ | +++ | +++ | +++ | +++ | +++ | ++ (10–29% reduction compared with wild-type CXCR4) | ++ (10–29% reduction compared with wild-type CXCR4) | +++ | +++ |  | 5.8 | 64
